Consider 13 compounds from ChEMBL document CHEMBL1201862, “PubChem BioAssay data set” (2004).

Each structure is given as a SMILES string.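 Where inhibition never reached the appropriate level, the endpoint shown equals the highest concentration tested. Otherwise, values were interpolated linearly from a five-concentration, 48-hour dose response in 96-well plates. Abbreviation: GI50, concentration required for 50% inhibition of growth.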 Calls of active or inactive are those of the source. Cut-off read from the data, not from the text of the source: active = GI50 up to about 1.1 µM and inactive = higher. Where only a bound is given, the exact number is not on record here.

Common to all, as to assay: DTP human tumour cell line panel, 48 h
In assay [1] the test system is M14.
Assay [2] concerns NCI-H460.
Assay [3] deals with KM12.
Assay [4] relates to SF-295.
Assay [5] relates to HOP-62.
Assay [6] has as its system MOLT-4.
Assay [7] deals with SN12C.
In assay [8] the test system is HCT-15.
For assay [9], the system named is SK-MEL-5.
Assay [10] has as its system CCRF-CEM.
Assay [11] deals with 786-0.
Assay [12] deals with ACHN.
Assay [13] concerns SK-MEL-2.
Assay [14] deals with NCI-H23.
For assay [15], the system named is MCF7.
For assay [16], the system named is BT-549.
The test system of assay [17] is NCI/ADR-RES.
For assay [18], the system named is T47D.
The test system of assay [19] is DU-145.

With `COC(=O)/C(=N\NC(N)=O)C(C(=O)C(=O)Nc1ccccc1C(=O)OC)c1nc2ccc(C(=O)c3ccccc3)cc2nc1O` (configuration not stated), the GI50 in assay [1], in [2], in assay [3], in assay [4], in [5] and in assay [6] was > 100 µM (inactive) throughout. Besides, the GI50 in [7] was > 100 µM (inactive); in assay [8], more than 100 µM; in assay [9] it was > 100 µM (inactive); in assay [10], > 100 µM (inactive); in [11] it was > 100 µM (inactive); in [12], > 100 µM (inactive). Besides, the GI50 in assay [13] and in [14] was > 100 µM (inactive) each time.

On to `CC(C)=C[C@H]1CCC2(OCCO2)[C@]1(C)CO`, for which the GI50 in assay [1], in assay [2], in assay [3], in assay [15], in assay [4] and in assay [7] was > 100 µM (inactive) in each case. Moreover, the concentration for 50% growth inhibition (GI50) in assay [8] is more than 100 µM; in [16], > 100 µM (inactive); in [9], > 100 µM (inactive); in assay [10], > 100 µM (inactive); in assay [11] it was > 100 µM (inactive); in assay [17], > 100 µM (inactive). Moreover, the GI50 in assay [12], in assay [13], in assay [14] and in [18] was > 100 µM (inactive) throughout.

On to `Cc1ccccc1C(=O)Oc1ccc(O)cc1`, for which the GI50 in assay [1], in assay [2], in assay [3], in [4], in assay [5] and in [6] was > 100 µM (inactive) each time. Besides, the GI50 in [7] is > 100 µM (inactive); in assay [8], more than 100 µM; in assay [9], > 100 µM (inactive); in [10], > 100 µM (inactive); in assay [11], > 100 µM (inactive); in assay [12] it was > 100 µM (inactive). Further, the GI50 in assay [13] and in [14] was > 100 µM (inactive) each time.

For `CCOC(=O)C(=O)Nc1cccc(Cl)c1C`, the GI50 in assay [1], in assay [2], in assay [3], in assay [4], in [5] and in assay [6] was > 100 µM (inactive) each time. Further, the GI50 in assay [7] is > 100 µM (inactive); in [8], more than 100 µM; in [9], > 100 µM (inactive); in [10], > 100 µM (inactive); in assay [11], > 100 µM (inactive); in [12], > 100 µM (inactive). The GI50 in [13] and in [14] was > 100 µM (inactive) each time.

Consider `CC(=O)OCC1OC(n2c(-c3ccccc3)c(C(C)=O)c(-c3cccc4ccccc34)c(C#N)c2=S)C(OC(C)=O)C(OC(C)=O)C1OC(C)=O` (configuration not stated), for which the GI50 in assay [19], in assay [1], in assay [2], in assay [3], in [15] and in [4] was > 100 µM (inactive) each time. Besides, the GI50 in assay [5] was > 100 µM (inactive); in [6], > 100 µM (inactive); in assay [7] it was > 100 µM (inactive); in assay [8] it was more than 100 µM; in [9], > 100 µM (inactive); in [10], > 100 µM (inactive). Further, the GI50 in assay [11], in assay [17], in assay [12], in assay [13], in [14] and in assay [18] was > 100 µM (inactive) in each case.

For `CCN(CC)CCNC(=O)c1ccccc1NC(=O)C(=O)Nc1ccccc1C(=O)NCCN(CC)CC`, the GI50 in assay [1] is 19.1 µM (inactive); in assay [2] it was 75 µM (inactive); in [3], 45.6 µM (inactive); in assay [4], 42.5 µM (inactive); in assay [5] it was > 100 µM (inactive); in assay [6] it was 30.2 µM (inactive). The GI50 in assay [7] is 60.5 µM (inactive); in assay [8], 49.9 µM; in assay [9] it was 18.8 µM (inactive); in assay [10] it was 30.3 µM (inactive); in [11], 20.6 µM (inactive); in assay [12] it was 92.3 µM (inactive). The GI50 was 43 µM (inactive) in assay [13] and > 100 µM (inactive) in assay [14].

For `CCOC(=O)C(C(=O)c1ccccc1)=C1NCCN1`, the GI50 in [1], in assay [2], in assay [3], in assay [4], in assay [5] and in assay [6] was > 100 µM (inactive) each time. Further, the GI50 in [7] is > 100 µM (inactive); in assay [8], more than 100 µM; in [9] it was > 100 µM (inactive); in [10], > 100 µM (inactive); in assay [11], > 100 µM (inactive); in assay [12], > 100 µM (inactive). In addition, the GI50 in assay [13] and in [14] was > 100 µM (inactive) each time.

With `COS(=O)(=O)OCCC(NC(=O)OCc1ccccc1)C(=O)OCc1ccccc1` (configuration not stated), the GI50 in assay [1], in assay [2], in [3], in assay [4], in assay [5] and in assay [6] was > 100 µM (inactive) each time. Further, the GI50 was > 100 µM (inactive) in assay [7]; more than 100 µM in assay [8]; > 100 µM (inactive) in assay [9]; > 100 µM (inactive) in assay [10]; > 100 µM (inactive) in [11]; > 100 µM (inactive) in [12]. Further, the GI50 in assay [13] and in assay [14] was > 100 µM (inactive) in each case.

Regarding `CCOC(=O)C(NC(=O)C(CCCCNP(=O)(OCC)OCC)NC(=O)C(C)NC(C)=O)C(C)C` (configuration not stated), the GI50 in assay [19], in [1], in assay [2], in [3], in [15] and in assay [4] was > 100 µM (inactive) throughout. The GI50 is > 100 µM (inactive) in assay [5]; > 100 µM (inactive) in assay [6]; > 100 µM (inactive) in [7]; more than 100 µM in [8]; > 100 µM (inactive) in assay [16]; > 100 µM (inactive) in assay [9]. The GI50 in [10], in assay [11], in assay [17], in assay [12], in assay [13] and in assay [14] was > 100 µM (inactive) in each case.

Consider `FC(F)(F)c1ccc(/C=N/C23CC4CC(CC(C4)C2)C3)cc1`, for which the GI50 in assay [1], in assay [2], in assay [3], in [4], in [5] and in assay [6] was > 100 µM (inactive) throughout. The GI50 was > 100 µM (inactive) in assay [7]; more than 100 µM in assay [8]; > 100 µM (inactive) in [9]; > 100 µM (inactive) in assay [10]; > 100 µM (inactive) in [11]; > 100 µM (inactive) in assay [12]. In addition, the GI50 in [13] and in assay [14] was > 100 µM (inactive) in each case.

Regarding `COc1cc(-c2ccc(NC(=O)SCCC(=O)O)cc2OC)ccc1NC(=O)SCCC(=O)O`, the GI50 in assay [1], in [2], in [3], in assay [4], in assay [5] and in [6] was > 100 µM (inactive) each time. Also, the GI50 in [7] is > 100 µM (inactive); in assay [8], more than 100 µM; in assay [9], > 100 µM (inactive); in assay [10], 98.2 µM (inactive); in assay [11], > 100 µM (inactive); in [12] it was > 100 µM (inactive). For the same compound, the GI50 in assay [13] and in assay [14] was > 100 µM (inactive) each time.

With `CCCCNC(=O)NNC(=O)c1cc(/C=C/c2cccc([N+](=O)[O-])c2)ncn1`, the GI50 in assay [1], in assay [2], in assay [3], in assay [4], in [5] and in assay [6] was > 100 µM (inactive) each time. The GI50 in assay [7] is > 100 µM (inactive); in [8], 87.3 µM; in assay [9], > 100 µM (inactive); in assay [10] it was > 100 µM (inactive); in assay [11] it was > 100 µM (inactive); in assay [12], > 100 µM (inactive). In addition, the GI50 in assay [13] and in assay [14] was > 100 µM (inactive) in each case.

For `COc1ccc(C2Cc3cc(OC)c(OC)c(OC)c3C2=O)cc1` (configuration not stated), the GI50 in assay [1], in assay [2], in [3], in assay [4], in [5] and in [6] was > 100 µM (inactive) throughout. Further, the GI50 in assay [7] is > 100 µM (inactive); in [8], more than 100 µM; in assay [9], 75.3 µM (inactive); in [10], > 100 µM (inactive); in [11], > 100 µM (inactive); in assay [12] it was > 100 µM (inactive). The values for the GI50 in assay [13] and in assay [14] were > 100 µM (inactive) and 87.9 µM (inactive), respectively.
